Source: patent US11787816B2, “Chlorin compound, and preparation and use thereof” (Southwest Jiaotong University, priority 2021, dated 2023)

Columns and labels:
[1] = test system: human cervical cancer Hela cells; experiment: Photosensitizer-mediated PDT, in vitro proliferation (MTT), Hela; format: cell-based; conditions: for cell viability (%): Hela
Procedure: (§1) Several kinds of tumor cells (human cervical cancer Hela cells, human hepatocellular carcinoma huh-7 cells and murine mammary carcinoma 4T1 cells) cultured in vitro from a variety of tissues were taken as cell models, so as to investigate the photodynamic effects mediated by different doses of CEFN, CEFO, Ce6 and HPPH on the three different tumor cells (n=3). The specific experimental procedures were carried out as follows.
(§2) Cells in the logarithmic growth phase were harvested and seeded in a 24-well plate. After growing to a confluence of 70-80%, the cells were randomly divided into a control group (free of drug and light irradiation), a drug group and a photodynamic group. The CEFN, CEFO, Ce6 and HPPH were added respectively in dark, and for each drug, four final concentrations 1, 2, 5, and 10 μg/mL were set with 3 replicates for each group. After the co-incubation, the groups were treated individually. Regarding the photodynamic group, the light irradiation was performed at a wavelength of 660 nm and three different light intensities, i.e., 2, 4 and 8 J/cm^2. After that, each group was digested, and were inoculated into a 96-well plate at 100 μL per well with 4 replicates for each treatment. 24 hours later, the 96-well plate was subjected to MTT assay as follows. Each well was added with 20 μL of MTT (3-4,5-dimethylthiazol-2,5-diphenyltetrazolium bromide) solution in the dark and incubated for 4 hours. The supernatant was discarded, and the residue was dissolved with 150 μL of dimethyl sulfoxide for 15 min. After that, the 96-well plate was measured by a microplate reader for the absorbance (OD value). The relative cell viability was calculated as follows: relative cell viability=OD value of experimental group/OD value of control group*100%.

[2] = test system: murine mammary carcinoma 4T1 cells; experiment: Photosensitizer-mediated PDT, in vitro proliferation (MTT), 4T1; format: cell-based
Procedure: as §1, §2
In this experiment, photodynamic effect mediated by the compounds (except CEFO and CEFN) in different Examples of this disclosure on the murine mammary carcinoma 4T1 cells was investigated. The experimental procedures are carried out as follows. Cells in the logarithmic growth phase were harvested and seeded in a 24-well plate. After growing to a confluence of 70-80%, the cells were randomly divided into multiple photodynamic groups and multiple no-light control groups. The compounds (as shown in Table 8a) with a final concentration of 10 μg/mL were added to each group respectively in dark with 3 replicates for each group, so as to co-incubate the cells with the drug. Regarding the multiple photodynamic groups, the light irradiation was performed at a wavelength of 660 nm and the light intensity of 8 J/cm^2. After that, each group was digested, and were inoculated into a 96-well plate at 100 μL per well with 4 replicates for light treatment and no light treatment. 24 hours later, the 96-well plate was measured by MTT assay as follows. Each well was added with 20 μL of MTT (3-4,5-dimethylthiazol-2,5-diphenyltetrazolium bromide) solution in the dark and incubated for 4 hours. The supernatant was discarded, and the residue was dissolved with 150 μL of dimethyl sulfoxide for 15 min. After that, the 96-well plate was measured by a microplate reader for the absorbance (OD value). The relative cell viability of the murine mammary carcinoma 4T1 cells was calculated as follows according to the measured absorbance (OD value) in each group: relative cell viability=OD value of experimental group/OD value of control group*100%.

[3] = test system: human hepatocellular carcinoma huh-7 cells; experiment: Photosensitizer-mediated PDT, in vitro proliferation (MTT), huh-7; format: cell-based
Procedure: as §1, §2

[4] = test system: murine mammary carcinoma 4T1 cells; experiment: Antitumor activity as photosensitizers on tumor-bearing mice (two PDT treatments); format: in vivo
Procedure: The murine mammary carcinoma cells (4T1 line) were subjected to adherent culture. After growing to a confluence of 70%-80%, the cells in the culture flask were routinely digested, centrifuged and counted, and then resuspended with 0.85% normal saline to a density of 1×10^7 cells/mL. The cell suspension was injected into the left lateral middle axillary subcutaneous part of […] Bal b/c healthy mice (female, aged 6-8 weeks) at 0.1 mL/mouse. When the tumor diameter, which was observed every other day, reached 0.6-0.8 cm, the mice with well-growing tumors and no ulcers on the epidermis were selected for grouped treatment.
(2) Mice with similar body weight and uniform tumor size are selected and randomly divided into 4 groups with 6 mice for each group. After inoculation of 4T1 cells and the tumor volume grows to 50˜80 mm^3, the mice were subjected to a first drug administration from the tail vein by group.
6 h after the drug administration, the mice were fixed to expose the tumor growth site. As a first PDT treatment, light irradiation was performed for 8 min, using PDT-660 photodynamic therapy equipment at the laser wavelength of 660 nm and the light dose of 150 Joule/cm^2. One week later, the second PDT treatment (the dosage and lighting conditions were the same as those of the first PDT treatment) was performed. The mice were sacrificed 14 days after the treatment. The tumor was removed, weighed and recorded.

[5] = 0.25 mg/kg tail vein, two PDT treatments one week apart, 660 nm, 150 Joule/cm^2, 14 days after treatment
[6] = 0.25 mg/kg, two PDT treatments, mice, in g (unit assumed)

3-n-hexylaminomethyl-3-devinyl-chlorin e4 disodium salt [CEFN]
cell viability (%) ([1]; 1 μg/mL, 660 nm, 2 J/cm^2): 98 ± 3% | cell viability (%) ([1]; 1 μg/mL, 660 nm, 4 J/cm^2): 99 ± 1% | cell viability (%) ([1]; 1 μg/mL, 660 nm, 8 J/cm^2): 78 ± 3% | cell viability (%) ([1]; 1 μg/mL, no light): 103 ± 2% | cell viability (%) ([1]; 2 μg/mL, 660 nm, 2 J/cm^2): 78 ± 3% | cell viability (%) ([1]; 2 μg/mL, 660 nm, 4 J/cm^2): 62 ± 2% | cell viability (%) ([1]; 2 μg/mL, 660 nm, 8 J/cm^2): 51 ± 3% | cell viability (%) ([1]; 2 μg/mL, no light): 99 ± 2% | cell viability (%) ([1]; 5 μg/mL, 660 nm, 2 J/cm^2): 43 ± 3% | cell viability (%) ([1]; 5 μg/mL, 660 nm, 4 J/cm^2): 32 ± 4% | cell viability (%) ([1]; 5 μg/mL, 660 nm, 8 J/cm^2): 21 ± 3% | cell viability (%) ([1]; 5 μg/mL, no light): 106 ± 2% | cell viability (%) ([1]; 10 μg/mL, 660 nm, 2 J/cm^2): 36 ± 3% | cell viability (%) ([1]; 10 μg/mL, 660 nm, 4 J/cm^2): 17 ± 2% | cell viability (%) ([1]; 10 μg/mL, no light): 104 ± 2% | toxicity to the cells when the drug is used alone without photodynamic treatment ([1]; summary statement for Hela, huh-7 and 4T1 cells, no light): will not lower the cell viability | cell viability (%) ([2]; 1 μg/mL, 660 nm, 2 J/cm^2): 97 ± 2% | cell viability (%) ([2]; 1 μg/mL, 660 nm, 4 J/cm^2): 89 ± 3% | cell viability (%) ([2]; 1 μg/mL, 660 nm, 8 J/cm^2): 81 ± 3% | cell viability (%) ([2]; 1 μg/mL, no light): 97 ± 3% | cell viability (%) ([2]; 2 μg/mL, 660 nm, 2 J/cm^2): 79 ± 3% | cell viability (%) ([2]; 2 μg/mL, 660 nm, 4 J/cm^2): 52 ± 2% | cell viability (%) ([2]; 2 μg/mL, 660 nm, 8 J/cm^2): 39 ± 2% | cell viability (%) ([2]; 5 μg/mL, 660 nm, 2 J/cm^2): 59 ± 2% | cell viability (%) ([2]; 5 μg/mL, 660 nm, 4 J/cm^2): 24 ± 3% | cell viability (%) ([2]; 5 μg/mL, 660 nm, 8 J/cm^2): 18 ± 1% | cell viability (%) ([2]; 5 μg/mL, no light): 98 ± 2% | cell viability (%) ([2]; 10 μg/mL, 660 nm, 2 J/cm^2): 38 ± 3% | cell viability (%) ([2]; 10 μg/mL, 660 nm, 4 J/cm^2): 10 ± 2% | cell viability (%) ([2]; 10 μg/mL, 660 nm, 8 J/cm^2): 8 ± 3% | cell viability (%) ([2]; 10 μg/mL, no light): 101 ± 3% | cell viability (%) ([3]; 1 μg/mL, 660 nm, 2 J/cm^2): 101 ± 3% | cell viability (%) ([3]; 1 μg/mL, 660 nm, 4 J/cm^2): 78 ± 3% | cell viability (%) ([3]; 1 μg/mL, 660 nm, 8 J/cm^2): 90 ± 3% | cell viability (%) ([3]; 1 μg/mL, no light): 97 ± 2% | cell viability (%) ([3]; 2 μg/mL, 660 nm, 2 J/cm^2): 87 ± 2% | cell viability (%) ([3]; 2 μg/mL, 660 nm, 4 J/cm^2): 68 ± 2% | cell viability (%) ([3]; 2 μg/mL, 660 nm, 8 J/cm^2): 64 ± 3% | cell viability (%) ([3]; 2 μg/mL, no light): 95 ± 3% | cell viability (%) ([3]; 5 μg/mL, 660 nm, 2 J/cm^2): 61 ± 2% | cell viability (%) ([3]; 5 μg/mL, 660 nm, 4 J/cm^2): 55 ± 3% | cell viability (%) ([3]; 5 μg/mL, 660 nm, 8 J/cm^2): 47 ± 2% | cell viability (%) ([3]; 5 μg/mL, no light): 93 ± 3% | cell viability (%) ([3]; 10 μg/mL, 660 nm, 2 J/cm^2): 50 ± 2% | cell viability (%) ([3]; 10 μg/mL, 660 nm, 4 J/cm^2): 12 ± 3% | cell viability (%) ([3]; 10 μg/mL, 660 nm, 8 J/cm^2): 9 ± 2% | cell viability (%) ([3]; 10 μg/mL, no light): 93 ± 1% | Inhibitory rate (average ± SD, %) [4, 5]: 86.1 ± 3.5% | Tumor weight (average ± SD, g) [4, 5]: 0.132 ± 0.032 g | Body weight At the beginning [4, 6]: 20.3 ± 0.3 | Body weight At the end [4, 6]: 22.4 ± 0.4
